Assays:
E. faecalis ATCC 29212 = assay: MIC determination; assay type: cell-based, Enterococcus faecalis; conditions: Gram-positive E. faecalis ATCC 29212, Mueller Hinton Broth
Description: (§1) Klebsiella pneumoniae (ATCC 49619), Escherichia coli (ATCC 25922), Staphylococcus aureus (ATCC 25928) and Enterococcus faecalis (ATCC 29212) strains were used as Gram-negative and Gram-positive bacterial cultures. The stock solutions of the tested compounds (dissolved in 90% (v/v) DMSO/H2O at 10 mM concentration) were diluted in 100 μL of Mueller Hinton Broth, and then two-fold serial dilutions were performed. As a starting point, 100 μM concentration of the compounds was used. Then, 10^−4 dilution of an overnight bacterial culture in 100 μL of medium was added to each well, with the exception of the medium control wells. Minimum inhibitory concentration (MIC) values of compounds were determined according to our previous work.

S. aureus ATCC 25928 = assay: MIC determination; assay type: cell-based, Staphylococcus aureus; conditions: Gram-positive S. aureus ATCC 25928, Mueller Hinton Broth
Description: as §1

MCF-7 KCR = assay: MTT cytotoxicity assay; assay type: cell-based, human
Description: (§2) To test the biological effects of the Cu(II) complexes and the ligands on human cancer cells, DU-145 prostate, A549 lung, and MCF-7 breast adenocarcinoma cells, as well as the multidrug-resistant MCF-7 KCR breast cancer cells were utilized. All the cell lines were maintained in RPMI-1640 media (Biosera, Nuaille, France) complemented with 10% fetal bovine serum (FBS), 2 mM L-glutamine, 0.01% streptomycin and 0.005% penicillin, (Biosera, Nuaille, France) and were cultured under standard conditions in a 37 °C incubator at 5% CO2 and 95% humidity. The cell lines were originally obtained from ATCC.
(§3) The effect of the complexes and of their ligands alone on the viability (on the metabolic activity) of human cancer cells was assessed by MTT assay. The tested compounds were dissolved in 90% (v/v) DMSO/H2O at 10 mM concentration. Equimolar solutions of the ligand CuCl2 salt were used for the cytotoxicity assays. The metal salts without ligands were also tested. For this, 1 × 10^4 cells/well were seeded into 96-well plates and left to grow overnight. On the following day, cells were exposed to increasing concentrations of each compound (0; 2.5; 5; 10; 15; 20 µM). After a 24 h incubation, cells were washed with PBS buffer and then incubated with 0.5 mg/mL MTT (Sigma-Aldrich, St Louis, Missouri, MO, USA) for 1 h at 37 °C. The formazan crystals were solubilized in DMSO (Molar Chemicals, Halásztelek, Hungary), and the absorbance of samples was determined at 570 nm using a Synergy HTX plate reader (BioTek, Winooski, Vermont, VT, USA). Absorption corresponding to the untreated control samples was considered as 100%.

DU-145 = assay: MTT cytotoxicity assay; assay type: cell-based, human; conditions: DU-145, MTT, 24 h incubation time
Description: as §2, §3

MCF-7 = assay: MTT cytotoxicity assay; assay type: cell-based, human; conditions: MCF-7, MTT, 24 h incubation time
Description: as §2, §3

A549 = assay: MTT cytotoxicity assay; assay type: cell-based, human; conditions: 24 h incubation time
Description: as §2, §3

[1] = DPPH free radical scavenging assay; conditions: for TEAC (Trolox equivalent antioxidant capacity): DPPH assay in ethanol; for TEAC (Trolox equivalent antioxidant capacity) / % Scavenging Effect: 25 °C; for % Scavenging Effect: DPPH:compound = 1:1 ratio after 30 min, ethanol; for IC50: in ethanol, T = 25 °C, cDPPH = 50 µM, ccompound = 5−50 µM
Description: The DPPH (Sigma-Aldrich) free radical scavenging capacity was studied at 25.0 ± 0.1 °C on an Agilent Cary 3500 spectrophotometer with tightly closed tandem cuvette according to our approach with some modifications. The stock solution of DPPH (100 µM) was prepared in ethanol, and 0.5 mL of this solution was added to one pocket of the cuvette and 0.5 mL of the tested compound in different concentrations in ethanol was added to another. The final concentration of the studied compounds was in the range 5–50 µM, where for DPPH concentration, it was always 50 µM. A standard compound Trolox (Sigma-Aldrich) was used as a positive control. The percentage of the antioxidant activity (AA), IC50 values (the concentration of compound at which it reduced 50% of DPPH) and Trolox equivalent antioxidant capacity (TEAC) were calculated.

[2] = cyclic voltammetry of Cu(II)-(T)SC (1:1) systems; assay type: physicochemical; conditions: 90% (v/v) DMSO/H2O, pH 7.40 (10 mM HEPES), 10 mV/s, 25 °C, I = 0.1 M (nBu4NPF6)
Description: Cyclic voltammograms of TSCs derivatives and their Cu(II) complexes at 25.0 ± 0.1 °C were recorded. nBu4NPF6 was used as a supporting electrolyte, and measurements were performed at pH 7.4. The complexes were obtained by mixing the ligand dissolved in DMSO with aqueous solution of CuCl2 in 1:1 ratio. The final concentration of stock was 1 mM. Measurements were performed on a conventional three-electrode system under argon atmosphere using an Autolab PGSTAT 204 potentiostat/galvanostat monitored with Metrohm’s Nova software. Samples were purged for 10 min with argon before recording the cyclic voltammograms. Platinum electrode was used as the working and auxiliary electrode and Ag/AgCl/3 M KCl as the reference electrode. The electrochemical system was calibrated with an aqueous solution of K3[Fe(CN)6] (E1/2 = +0.458 V vs. NHE). Redox potentials were obtained at 10 mV/s scan rate in the range of −1.3 to +0.8 V.

[3] = direct redox reaction of the Cu(II) complexes with GSH (UV–vis, anaerobic); assay type: physicochemical; conditions: Cu(II) complex (25 µM) of the named ligand with GSH (1.25 mM), pH 7.4, anaerobic, 30% (v/v) DMSO/H2O, 25.0 °C
Description: The redox reaction of the Cu(II) complexes with GSH and ascorbic acid was studied at 25.0 ± 0.1 °C, at pH 7.40 (10 mM HEPES with 0.1 M KCl) on an Agilent Cary 8454 diode array spectrophotometer using a special, tightly closed tandem cuvette (Hellma Tandem Cell, 238-QS). The complex and the reducing agent were separated until the reaction was triggered. Both isolated pockets of the tandem cuvette were completely deoxygenated by bubbling argon for 10 min before mixing the reactants. Spectra were recorded before and then immediately after the mixing, and changes were followed till no further absorbance change was observed. The stock solutions of the reducing agents and the complexes were freshly prepared every day.
During the calculations, the absorbance (A)−time (t) curves were fitted and analyzed at the λmax of the complex. (A0 − Afinal) × e ^(−a×t) + Afinal equation was used where A0, Afinal and a parameters were refined and accepted at the minimal value of the weighted sum of squared residuals (difference between the measured and calculated absorbance values) at the given wavelength. Then observed rate constants (kobs) of the redox reaction were obtained from the data points of the simulated absorbance–time curves as the slope of the ln(A/A0) versus t plots.

physchem = assay type: physicochemical
Description: (§4) An Orion 710A pH-meter equipped with a Metrohm combined electrode (type 6.0234.100) and a Metrohm 665 Dosimat burette were used for the UV–vis titrations at 25.0 ± 0.1 °C. Ionic strength of 0.10 M (KCl) was used to keep the activity coefficients constant. The titrations were performed with carbonate-free KOH solution of known concentration (0.10 M) with 30% (v/v) DMSO content. […] The average water ionization constant (pKw) is 14.54 ± 0.05 in the 30% (v/v) DMSO/H2O mixture. Argon was always passed over the solutions during the titrations. An Agilent Cary 8454 diode array spectrophotometer was used to record the UV–vis spectra at an interval of 200–800 nm. The path length was 2 cm. Spectrophotometric titrations were performed using a 0.1 M KOH titrant solution with 30% (v/v) DMSO on samples with 30% (v/v) DMSO containing HCl, KCl and the ligand at 20 μM concentration in the pH range 2.0–12.5 in the absence or in the presence of 1 or 0.5 equiv. Cu(II) ions. Proton dissociation constants (Ka) of the TSC ligands, the overall stability constants (β) of the Cu(II) complexes and the UV–vis spectra of the individual species were calculated by the computer program PSEQUAD [41] as was done in our previous works.

[4] = assay type: physicochemical; conditions: for logβ [CuLH−1] / logβ [CuL]+: Cu(II) complex of the named ligand, 30% (v/v) DMSO/H2O, T = 25.0 °C, I = 0.1 M (KCl); for pCu5.0: calculated at pH 5.0, cCu(II) = 20 µM; for pCu5.0 / pCu6.0 / pCu7.4: cligand = 20 µM; for pCu6.0: estimated at pH 6.0, cCu(II) = 20 µM; for pCu7.4: estimated at pH 7.4, cCu(II) = 20 µM
Description: as §4

[5] = Enterococcus faecalis, ATCC29212
[6] = Staphylococcus aureus, ATCC25928
[7] = Homo sapiens, MCF7, 24 h incubation time

Structure (SMILES) | MIC (E. faecalis ATCC 29212) [µM] | MIC (S. aureus ATCC 25928) [µM] | IC50 (MCF-7 KCR; 24 h incubation time) [µM] | IC50 (DU-145) [µM] | IC50 (MCF-7) [µM] | IC50 (A549) [µM] | TEAC (Trolox equivalent antioxidant capacity) [1] | % Scavenging Effect [1] [%] | IC50 [1] [µM] | formal potential E’ vs. Ag/AgCl/3M KCl [2] | MIC (E. faecalis ATCC 29212; [5]) [µM] | MIC (S. aureus ATCC 25928; [6]) [µM] | kobs [3] [min⁻¹] | pKa (physchem) | IC50 (MCF-7 KCR; [7]) [µM] | IC50 (DU-145; Homo sapiens) [µM] | IC50 (MCF-7; Homo sapiens, MCF7) [µM] | IC50 (A549; Homo sapiens) [µM] | pKa [CuL]+ [4] | logβ [CuLH−1] [4] | further results
CN(C)C([S-])=N/N=C/c1cc2c(cc1[O-])CC[C@@H]1[C@@H]2CC[C@]2(C)[C@@H](O)CC[C@@H]12.O.[Cu+2] [Cu(II)-Me2-estradiol-TSC] | 12.5 | 0.78 | > 20 | 7.85 ± 1.08 | 10.1 ± 1.36 | 3.44 ± 1.02 | 0.7 | 40.4 | 16.4 | +0.33 V |  |  |  |  |  |  |  |  |  |  | 
CNC([S-])=N/N=C/c1cc2c(cc1[O-])CC[C@@H]1[C@@H]2CC[C@]2(C)[C@@H](O)CC[C@@H]12.O.[Cu+2] [Cu(II)-Me-estradiol-TSC] | 50 | 6.25 | > 20 | 15.8 ± 1.08 | 16.7 ± 1.66 | 3.71 ± 1.02 | 0.6 | 33.6 | 20.3 | +0.29 V |  |  |  |  |  |  |  |  |  |  | 
CN(C)C(=S)NN=Cc1cc2c(cc1O)CC[C@@H]1[C@@H]2CC[C@]2(C)[C@@H](O)CC[C@@H]12 [Me2-estradiol-TSC, 2-((3,17 β-Dihydroxy-estra-1,3,5(10)-triene-2-yl)methylene)-N,N-dimethylhydrazine-1-carbothioamide] |  |  |  |  |  |  | 0.9 | 100 | 13.6 |  | > 100 | > 100 | 0.31 ± 0.06 | 9.2 ± 0.03 | > 20 | > 20 | > 20 | > 20 | 3.85 | 10.11 ± 0.03 | logβ [CuL]+ [4]: 13.96 ± 0.03; pCu5.0 [4]: 8.0; pCu6.0 [4]: 9.6; pCu7.4 [4]: 12.4
CNC(=S)NN=Cc1cc2c(cc1O)CC[C@@H]1[C@@H]2CC[C@]2(C)[C@@H](O)CC[C@@H]12 [Me-estradiol-TSC, 2-((3,17 β-Dihydroxy-estra-1,3,5(10)-triene-2-yl)Methylene)-N-methylhydrazine-1-carbothioamide] |  |  |  |  |  |  | 0.8 | 31.0 | 15.4 |  | > 100 | > 100 | 0.22 ± 0.02 | 9.28 ± 0.03 | > 20 | > 20 | > 20 | 15.8 ± 1.03 | 4.08 | 9.59 ± 0.03 | logβ [CuL]+ [4]: 13.68 ± 0.03; pCu5.0 [4]: 7.6; pCu6.0 [4]: 9.1; pCu7.4 [4]: 11.8
Cc1c(C)c2c(c(C)c1O)CCC(C)(C(=O)O)O2 (centres unmarked) [Trolox, 6-hydroxy-2,5,7,8-tetramethylchroman-2-carboxylic acid, reference compound] |  |  |  |  |  |  | 1 | 100 | 12 |  |  |  |  |  |  |  |  |  |  |  | 
C[C@]12CC[C@@H]3c4ccc(O)cc4CC[C@H]3[C@@H]1CC[C@@H]2O [estradiol] |  |  |  |  |  |  |  | 0.5 | > 50 |  |  |  |  |  |  |  |  |  |  |  | 

Reference: PMC9822434, “Estradiol-Based Salicylaldehyde (Thio)Semicarbazones and Their Copper Complexes with Anticancer, Antibacterial and Antioxidant Activities” (Molecules, 2022)
